The source of these data is patent US20220409578A1, “FUNCTIONALIZED 1,3-BENZENE DIOLS AND THEIR METHOD OF USE FOR THE TREATMENT OF RADIATION DERMATITIS AND OTHER SKIN DISORDERS” (KANNALIFE SCIENCES, INC., priority 2019, published 2022).

Data set [1] concerns CXCL5. The experiment in a line: CXCL5 chemokine secretion by UV-B irradiated NHEKs (ELISA). Format: cell-based, human. The protocol:
Normal human epidermal keratinocytes cultures were utilized to measure the release of proinflammatory cytokines and chemokines. Primary epidermal keratinocytes from neonatal donors were used from human origin and purchased from Thermo-Fisher (Cat No. A13401). […] Cells were cultured until the second passage and then acclimated for 48 hours more before UV-B irradiation. Dosing procedures and cell groups were identified using appropriate cell culture 24-well plates. The cell culture incubator was set at 5% v/v CO2 with temperature and humidity maintained at 36-38° C. and 40-70%, respectively. The test and control substances were administered to HKGS-depleted medium in triplicates. A fixed 5 μL/well from 100× stock dose volume was administered to 500 μL of media to each cell culture well on Day 3 and pre-incubated for 6 hours and then post-UVB incubated for 18 hours. […] CXCL5 levels were quantified by enzyme-linked immunosorbent assay (ELISA) after UV-B irradiation and incubation with test and control materials. CXCL5 levels were assessed from cell culture media supernatants using R&D Systems Human CXCL5/ENA-78 DuoSet ELISA kit (Cat. No. DY254-05) according to the manufacture's specifications. Absorbance was measured at 450 nm using plate reader and cytokine levels were calculated from a standard curve.

For data set [2], the system named is human 3D skin-like EPIDERM. As to conditions: 1 h.
Data set [3] has as its system IL-6. The experiment in a line: IL-6 release, UV-A-induced photoaging in human dermal fibroblasts (ELISA). Format: cell-based. As to conditions: UV-A 12.5 J/cm^2 (315-400 nm). The protocol:
Primary dermal fibroblasts cells of human origin were cultured in vitro using standard conditions (37° C., 95% v/v air, 5% v/v CO2). Primary dermal fibroblasts from neonatal donor were used from human origin and purchased from Thermo-Fisher (Cat No. C0045C). […] Cells were cultured until the second passage and then acclimated for 48 hours before UVA irradiation and dosing procedures conducted in 24-well plates. On Day 3, test materials were dosed to cell culture media and pre-incubated for 6 hours. Treatment media was then removed and replaced with phosphate buffer saline (PBS) without test materials and Ultraviolet-A (UV-A) was irradiated at 12.5 J/cm^2 using FS-20/T-12 bulbs (315-400 nm). […]
An Interleukin-6 assay was used to evaluate the anti-inflammatory activity of KLS-13022 formulated in ethanol and applied in vitro to cells irradiated with Ultraviolet-A (UV-A)-induced photoaging (Wlascheck et al., 1994) in human dermal fibroblasts (HDFs). […] IL-6 levels were quantified by enzyme-linked immunosorbent assay (ELISA) after inflammatory induction and incubation with test and control materials. Interleukin-6 (IL-6) levels were assessed from cell culture media supernatants using BD Biosciences OptEIA™ Human IL-6 ELISA Set kit (Cat. No. 555220). according to the manufacture's specifications. […]
In general terms: An ELISA detects its analyte on a solid surface through an enzyme-linked reagent.

Data set [4] has as its system human epidermal keratinocytes. Format: cell-based. To be noted: 24 h. The protocol: Normal human epidermal keratinocytes cultures were utilized to measure the release of proinflammatory cytokines and chemokines. Primary epidermal keratinocytes from neonatal donors were used from human origin and purchased from Thermo-Fisher (Cat No. A13401). […] Cells were cultured until the second passage and then acclimated for 48 hours more before UV-B irradiation. Dosing procedures and cell groups were identified using appropriate cell culture 24-well plates. The cell culture incubator was set at 5% v/v CO2 with temperature and humidity maintained at 36-38° C. and 40-70%, respectively. The test and control substances were administered to HKGS-depleted medium in triplicates. A fixed 5 μL/well from 100× stock dose volume was administered to 500 μL of media to each cell culture well on Day 3 and pre-incubated for 6 hours and then post-UVB incubated for 18 hours. The same procedure was utilized to determine non-toxic concentrations of 1,3-benzene diols after 24 hours of treatment. Cell Viability assays were conducted using MTS reduction assays (Promega) diluted 1:5 in DMEM+10% FBS media as specified by the manufacturer. Absorbance was measured at 490 nm using plate reader and cell viability was calculated as a percent of control. This assay was done along with all culture systems that were utilized to study cytokine release. […]

In general, IC50 refers to the concentration needed to halve the response being measured. As to `C=C(C)[C@@H]1CCC(C)=C[C@H]1c1c(O)cc(CC2CN(C(=O)OCC)C2)cc1O` [KLS-13022, ethyl 3-(3,5-dihydroxy-4-((1R,6R)-3-methyl-6-(prop-1-en-2-yl)cyclohex-2-enyl)benzyl)azetidine-1-carboxylate], the CXCL5 inhibition in data set [1] was 100%. The concentration for half-maximal inhibition (IC50) is 50 nM in data set [1] (Homo sapiens, NHEK, light or radiation study, read-out: IC50 of CXCL5 inhibition) and 900 nM in data set [3] (Fibroblast, light or radiation study, read-out: IC50 of IL-6 inhibition). The compound further displayed a tissue viability in data set [2] of no less than 50%. Further, the “maximum IL-6 inhibition” value in data set [3] came out at 95%. The compound also registered a non-toxic concentration range in data set [4] of no more than 10 µM.
